How the values were obtained:
IMP-1 = IMP-1 (Serratia marcescens, UniProt P52699); assay: biochemical; type: biochemical; settings: CCF2-FA substrate, 2 hours at 25° C; read-out: IMP-1 IC50
Procedure: (§1) Enzyme Activity: Determination of IC50
(§2) The Class B enzyme activities were measured in the presence of the test inhibitor in a fluorescence assay against a commercially available substrate consisting of a cephalosporin core linking 7-hydroxycoumarin to fluorescein (CCF2-FA). […] In a 384-well microplate, the test inhibitor was incubated with the metallo-β-lactamase enzyme and the substrate for 2 hours at 25° C. […] The IC50 value was determined from semi-logarithmic plots of enzyme inhibition versus inhibitor concentration, with a curve generated using a 4-parameter fit.

NDM-1 = NDM-1 (Klebsiella pneumoniae, UniProt C7C422); assay: biochemical; type: biochemical; settings: CCF2-FA substrate, 2 hours at 25° C; read-out: NDM-1 IC50
Chain of NDM-1 (C7C422 whole entry, looked up, species assumed): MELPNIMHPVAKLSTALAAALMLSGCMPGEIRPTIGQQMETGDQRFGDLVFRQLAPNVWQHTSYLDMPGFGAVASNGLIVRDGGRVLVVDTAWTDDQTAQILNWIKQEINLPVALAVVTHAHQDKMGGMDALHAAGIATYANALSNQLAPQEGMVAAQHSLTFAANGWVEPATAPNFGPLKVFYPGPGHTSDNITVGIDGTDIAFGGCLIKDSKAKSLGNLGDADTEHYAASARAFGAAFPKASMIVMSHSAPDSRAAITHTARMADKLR
Procedure: as §1, §2

VIM-1 = VIM-1 (Pseudomonas aeruginosa (strain ATCC 15692 / DSM 22644 / CIP 104116 / JCM 14847 / LMG 12228 / 1C / PRS 101 / PAO1), UniProt A0A0F7KYQ8); assay: biochemical; settings: CCF2-FA substrate, 2 hours at 25° C
Procedure: as §1, §2

[1] = test system: Escherichia coli expressing NDM-1 (CLB30005, CLB30016); type: cell-based; settings: with imipenem 1 μg/ml, 95% inhibition of bacterial growth; for Escherichia coli MITC95: NDM-1 (CLB30016)
Procedure: (§3) Antibiotic Potentiation Activity: Determination of Synergistic Concentration
(§4) The bacterial strains tested included the clinical strains Escherichia coli expressing NDM-1 (CLB30005, CLB30016), Serratia marcescens expressing IMP-1 (CL5741), and Klebsiella pneumoniae expressing VIM-1 (IHMA599644). Inhibitor activity was measured in the presence and absence of imipenem in a 384-well microplate.
(§5) The clinical strains CLB30016, CL5741 and IHMA599644 were grown on trypticase soy agar containing 5% sheep's blood. The bacteria on agar plates were incubated at 35° C. with humidity overnight. The following day, individual colonies from each clinical strain were picked and resuspended in 5 ml saline to attain an OD600 of […], for CLB30016, CL5741 and IHMA599644, respectively. These were further diluted 1:100 into 1.1×CAMHB and used to inoculate the test wells as described below.
(§6) Imipenem in 10 mM 3-(N-morpholino)propanesulfonic acid (MOPS, pH 7) was stored in single use aliquots at −80° C. […] On the day of the assay, 4 μl of antibiotic was added to 45 ul of bacteria followed by 1 μl of test compound and mixed by pipetting and with an orbital shaker. The concentration of antibiotic used in the assay was 1 μg/ml. Microplates were covered and incubated at 35° C. for 22 hours to 24 hours. At the end of the incubation, absorbance was determined using a spectrophotometer.
(§7) For example, in general, the compounds of Examples 1-379 were determined to restore susceptibility to imipenem for one or more of the test organisms at concentrations of 100 μM or less.

[2] = test system: Klebsiella pneumoniae expressing VIM-1 (IHMA599644); type: cell-based; settings: with imipenem 1 μg/ml, 95% inhibition of bacterial growth; for Klebsiella pneumoniae MITC95: VIM-1 (IHMA599644)
Procedure: as §3, §4, §5, §6, §7

[3] = test system: Serratia marcescens expressing IMP-1 (CL5741); type: cell-based; settings: with imipenem 1 μg/ml, 95% inhibition of bacterial growth; for Serratia marcescens MITC95: IMP-1 (CL5741)
Procedure: as §3, §4, §5, §6, §7

[4] = test system: P. aeruginosa expressing IMP-1, efflux+ (MB9798); type: cell-based, Pseudomonas aeruginosa; settings: for P. aeruginosa expressing IMP-1, efflux+ (MB9798) MITC95: imipenem at 2 μg/mL, in the presence of a class A, C, D serine β-lactamase inhibitor closely related to relebactam; for Efflux ratio: ratio MITC95 PA_9798/MITC95 PA_9799
Source text: (§8) The strain background is Pseudomonas aeruginosa PAO1.

[5] = test system: P. aeruginosa expressing IMP-1, efflux− (MB9799); assay: Efflux: concentration of MBL inhibitor which restores susceptibility to imipenem; type: cell-based, Pseudomonas aeruginosa; settings: imipenem at 2 μg/mL, in the presence of a class A, C, D serine β-lactamase inhibitor closely related to relebactam
Source text: as §8

Chain of IMP-1 (P52699 whole entry, looked up, species assumed): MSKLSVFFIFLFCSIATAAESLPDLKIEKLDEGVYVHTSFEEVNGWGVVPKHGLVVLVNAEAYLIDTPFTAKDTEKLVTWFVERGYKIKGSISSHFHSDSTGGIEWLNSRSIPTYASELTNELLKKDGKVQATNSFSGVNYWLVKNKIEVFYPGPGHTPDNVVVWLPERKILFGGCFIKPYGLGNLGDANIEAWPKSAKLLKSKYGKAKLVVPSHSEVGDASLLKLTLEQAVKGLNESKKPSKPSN

SMILES	IC50 (IMP-1)	IC50 (NDM-1)	IC50 (VIM-1)	Escherichia coli expressing NDM-1 (CLB30016) MITC95 [1]	Klebsiella pneumoniae expressing VIM-1 (IHMA599644) MITC95 [2]	Serratia marcescens expressing IMP-1 (CL5741) MITC95 [3]	P. aeruginosa expressing IMP-1, efflux+ (MB9798) MITC95 [4]	Efflux ratio [4]	P. aeruginosa expressing IMP-1, efflux− (MB9799) MITC95 [5]	Escherichia coli MITC95 [1]	Klebsiella pneumoniae MITC95 [2]	Serratia marcescens MITC95 [3]
Nc1nc2cc(-c3ccc(SC4CNC4)c(S(N)(=O)=O)c3-c3nn[nH]n3)ccc2[nH]1 [Example 1, 3-(2-amino-1H-benzo[d]imidazol-5-yl)-6-(azetidin-3-ylthio)-2-(2H-tetrazol-5-yl)benzenesulfonamide]	422 nM	20.8 nM	141 nM	0.3906 µM	6.25 µM	6.25 µM	50 µM	8.00	6.25 µM	–	–	–
Nc1nc2c(-c3ccc(SC4CNC4)c(S(N)(=O)=O)c3-c3nn[nH]n3)cccc2[nH]1 [Example 2, 3-(2-amino-1H-benzo[d]imidazol-4-yl)-6-(azetidin-3-ylthio)-2-(2H-tetrazol-5-yl)benzenesulfonamide]	75.8 nM	2.24 nM	73.7 nM	0.5 µM	6.25 µM	1.781 µM	6.25 µM	4.88	1.281 µM	–	–	–
Nc1nc2cccc(-c3ccc(SC4CCNCC4)c(S(N)(=O)=O)c3-c3nn[nH]n3)c2[nH]1 [Example 3, 3-(2-amino-3H-benzo[d]imidazol-4-yl)-6-(piperidin-4-ylthio)-2-(2H-tetrazol-5-yl)benzenesulfonamide]	109 nM	3.27 nM	79.5 nM	0.125 µM	25 µM	6.25 µM	25 µM	9.75	2.563 µM	–	–	–
NS(=O)(=O)c1c(SC2CNC2)ccc(-c2ccc(C3CCNCC3)cc2)c1-c1nn[nH]n1 [Example 4, 4-(Azetidin-3-ylthio)-4′-(piperidin-4-yl)-2-(2H-tetrazol-5-yl)-[1,1′-biphenyl]-3-sulfonamide]	15.1 nM	11.5 nM	53.5 nM	0.7813 µM	3.125 µM	1.563 µM	1.563 µM	4.00	0.3906 µM	–	–	–
NS(=O)(=O)c1c([S+]([O-])C2CNC2)ccc(-c2ccc(C3CCNCC3)cc2)c1-c1nn[nH]n1 (stereo not shown) [Example 5, 4-(Azetidin-3-ylsulfinyl)-4′-(piperidin-4-yl)-2-(2H-tetrazol-5-yl)-[1,1′-biphenyl]-3-sulfonamide]	6.88 nM	1.98 nM	2.02 nM	3.125 µM	3.125 µM	3.125 µM	3.125 µM	2.00	1.563 µM	–	–	–
NS(=O)(=O)c1c(S(=O)(=O)C2CNC2)ccc(-c2ccc(C3CCNCC3)cc2)c1-c1nn[nH]n1 [Example 6]	0.212 nM	0.307 nM	0.195 nM	0.7813 µM	1.563 µM	1.563 µM	0.7813 µM	1.00	0.7813 µM	–	–	–
NS(=O)(=O)c1c(SC2CNC2)ccc(-c2cnc3ccccn23)c1-c1nn[nH]n1 [Example 7, 6-(azetidin-3-ylthio)-3-(imidazo[1,2-a]pyridin-3-yl)-2-(2H-tetrazol-5-yl)benzenesulfonamide]	50.4 nM	7.55 nM	25.6 nM	0.3906 µM	6.25 µM	3.125 µM	25 µM	8.00	3.125 µM	–	–	–
NS(=O)(=O)c1c([S+]([O-])C2CNC2)ccc(-c2cnc3ccccn23)c1-c1nn[nH]n1 (stereo not shown) [Example 8, 6-(azetidin-3-ylsulfinyl)-3-(imidazo[1,2-a]pyridin-3-yl)-2-(2H-tetrazol-5-yl)benzenesulfonamide]	37.7 nM	2.62 nM	6.92 nM	3.125 µM	12.5 µM	12.5 µM	50 µM	8.00	6.25 µM	–	–	–
NC(=O)N1CC(S(=O)(=O)c2ccc(-c3ccc(NS(=O)(=O)C4CC4)cc3)c(-c3nn[nH]n3)c2S(N)(=O)=O)C1 [Example 246, 3-((4′-(cyclopropanesulfonamido)-3-sulfamoyl-2-(2H-tetrazol-5-yl)-[1,1′-biphenyl]-4-yl)sulfonyl)azetidine-1-carboxamide]	0.103 nM	–	0.139 nM	–	–	–	12.5 µM	–	3.125 µM	50 µM	25 µM	12.5 µM
NC[C@H](O)CS(=O)(=O)c1ccc(-c2cccc3sc(N)nc23)c(-c2nn[nH]n2)c1S(N)(=O)=O [Example 281, 6-((S)-3-amino-2-hydroxypropylsulfonyl)-3-(2-aminobenzo[d]thiazol-4-yl)-2-(2H-tetrazol-5-yl)benzenesulfonamide]	–	0.0561 nM	0.134 nM	–	–	–	0.3906 µM	–	0.7813 µM	0.7813 µM	1.563 µM	0.7813 µM
NC[C@@H](O)CS(=O)(=O)c1ccc(-c2cccnc2N)c(-c2nn[nH]n2)c1S(N)(=O)=O [Example 367, (R)-6-((3-amino-2-hydroxypropyl)sulfonyl)-3-(2-aminopyridin-3-yl)-2-(2H-tetrazol-5-yl) benzenesulfonamide]	–	–	0.703 nM	–	–	–	1.563 µM	1.00	1.563 µM	0.1953 µM	1.563 µM	0.7813 µM
NC[C@H](O)CS(=O)(=O)c1ccc(-c2cccnc2N)c(-c2nn[nH]n2)c1S(N)(=O)=O [Example 368, (S)-6-((3-amino-2-hydroxypropyl)sulfonyl)-3-(2-aminopyridin-3-yl)-2-(2H-tetrazol-5-yl) benzenesulfonamide]	–	–	0.561 nM	–	–	–	1.563 µM	1.33	1.172 µM	0.1953 µM	2.344 µM	0.7813 µM
